Values after ≈ are worked out from the molar mass of the structure shown.
Assays:
Gram-negative = conditions: cited from earlier work
Gram-positive = conditions: cited from earlier work
Fungi = conditions: cited from earlier work
Yeast = conditions: cited from earlier work
[1] = test system: Streptococcus haemolyticus; assay: Minimum inhibition concentration of prenilamine; type: cell-based
Streptococcus mutans = assay: Minimum inhibition concentration of prenilamine; type: cell-based
Listeria monocytogenes = assay: Minimum inhibition concentration of prenilamine; type: cell-based
[2] = test system: Lactobacillus acidophilus; assay: Minimum inhibition concentration of prenilamine; type: cell-based
Solubility in water = type: physicochemical
[3] = test system: Corynebacterium diphtherise; assay: Minimum inhibition concentration of prenilamine; type: cell-based
Streptococcus mitis = assay: Minimum inhibition concentration of prenilamine; type: cell-based
Haemophilus influensae = assay: Minimum inhibition concentration of prenilamine; type: cell-based
Streptococcus pneumoniae = assay: Minimum inhibition concentration of prenilamine; type: cell-based
Staphylococcus epidermis = assay: Minimum inhibition concentration of prenilamine; type: cell-based
Neisseria pharingis = assay: Minimum inhibition concentration of prenilamine; type: cell-based
Staphylococcus aureus = assay: Minimum inhibition concentration of prenilamine; type: cell-based
Candida albicans = assay: Minimum inhibition concentration of prenilamine; type: cell-based

In the case of `O=C(OCc1ccccc1)c1ccc(O)cc1` [Benzyl paraben], the “Minimum Inhibition Concentration” value (Gram-negative) is listed as 200 µg/mL, the “Minimum Inhibition Concentration” value (Gram-positive) is listed as 50 µg/mL and the “Minimum Inhibition Concentration” value (Fungi) is listed as 75 µg/mL. For the same molecule, the “Minimum Inhibition Concentration” value (Yeast) was 100 µg/mL.

In the case of `Oc1c(Cl)cc(Cl)c(Cl)c1Cc1c(O)c(Cl)cc(Cl)c1Cl` [Hexachlorophene, 3,3',4,4',6,6'-hexachloro-2,2'-methylene-diphenoi], the “Minimum Inhibition Concentration” value (Gram-positive) is given as 1—10 µg/ml.

For `COC(=O)c1ccc(O)cc1` [Methyl paraben, p-hydroxybenzoic acid methylester], the “Minimum Inhibition Concentration” value (Gram-negative) is listed as 1000 µg/mL, the “Minimum Inhibition Concentration” value (Gram-positive) is listed as 800 µg/mL and the “Minimum Inhibition Concentration” value (Fungi) is listed as 500 µg/mL. The “Minimum Inhibition Concentration” value (Yeast) was 1000 µg/mL.

In the case of `CC(Cc1ccccc1)NCCC(c1ccccc1)c1ccccc1` (stereo not shown) [prenilamine, 3,3-diphenylpropyl-1-methylphenethylamine], the MIC [1] is reported as 5 µg/mL (≈ 15.2 µM), the Nature of effect [1] is reported as “bactericide” and the MIC (Streptococcus mutans) is reported as 5 µg/mL (≈ 15.2 µM). For the same molecule, the Nature of effect (Streptococcus mutans) was “bactericide”, the MIC (Listeria monocytogenes) was 10 µg/mL (≈ 30.4 µM) and the Nature of effect (Listeria monocytogenes) was “bactericide”. For the same molecule, the MIC [2] was 5 µg/mL (≈ 15.2 µM), the Nature of effect [2] was “bactericide” and the solubility in water (Solubility in water) was “do not dissolve well in water”. The MIC [3] was 10 µg/mL (≈ 30.4 µM), the Nature of effect [3] was “bactericide” and the MIC (Streptococcus mitis) was 5 µg/mL (≈ 15.2 µM). For the same molecule, the Nature of effect (Streptococcus mitis) was “bactericide”, the MIC (Haemophilus influensae) was 60 µg/mL (≈ 182 µM) and the Nature of effect (Haemophilus influensae) was “bactericide”. The MIC (Streptococcus pneumoniae) was 30 µg/mL (≈ 91.1 µM), the Nature of effect (Streptococcus pneumoniae) was “bactericide” and the MIC (Staphylococcus epidermis) was 30 µg/mL (≈ 91.1 µM). For the same molecule, the Nature of effect (Staphylococcus epidermis) was “bactericide”, the MIC (Neisseria pharingis) was 20 µg/mL (≈ 60.7 µM) and the Nature of effect (Neisseria pharingis) was “bactericide”. For the same molecule, the MIC (Staphylococcus aureus) was 30 µg/mL (≈ 91.1 µM), the Nature of effect (Staphylococcus aureus) was “bactericide” and the MIC (Candida albicans) was 100 µg/mL (≈ 304 µM). For the same molecule, the Nature of effect (Candida albicans) was “fungicide”.

Reference: patent EP0105872B1, “NOVEL COSMETIC COMPOSITIONS CONTAINING PRENYLAMINE AND A PROCESS FOR THEIR PREPARATION” (CAOLA KOZMETIKAI ES HAZTARTÄSVEGYIPARI VALLALAT, priority 1982, dated 1983)
